{"source": "patent US7179806B2", "about": "“Δ1-pyrrolines used as pesticides” (Bayer Cropscience AG, priority 2000, dated 2007)"}
{"experiment": "log P determination by HPLC (reversed-phase C18, EEC Directive 79/831 Annex V.A8)", "format": "physicochemical", "settings": "reversed-phase C18 HPLC column, pH 2.3, pH 2.3, 0.1% aqueous phosphoric acid/acetonitrile gradient, 43° C", "source_text": "Mobile phases for determination in the acidic range: 0.1% aqueous phosphoric acid, acetonitrile; linear gradient from 10% acetonitrile to 90% acetonitrile."}
{"smiles": "Fc1cccc(F)c1C1=NC(c2ccc(-c3cnc(N4CCN(CC5CCCCC5)CC4)nc3)cc2)CC1", "note": "(stereo not shown) [Example 123]", "chromatographic logP": 2.12}
{"smiles": "Fc1cccc(F)c1C1=NC(c2ccc(-c3cnc(-n4ccnc4)nc3)cc2)CC1", "note": "(stereo not shown) [Example 124]", "chromatographic logP": 1.25}
{"smiles": "CCOCCN1CCN(c2ncc(-c3ccc(C4CCC(c5c(F)cccc5F)=N4)cc3)cn2)CC1", "note": "(stereo not shown) [Example 125]", "chromatographic logP": 1.47}
{"smiles": "COCCCN1CCN(c2ncc(-c3ccc(C4CCC(c5c(F)cccc5F)=N4)cc3)cn2)CC1", "note": "(stereo not shown) [Example 126]", "chromatographic logP": 1.38}
{"smiles": "Fc1cccc(F)c1C1=NC(c2ccc(-c3ccc(OC(F)F)nc3)cc2)CC1", "note": "(stereo not shown) [Example 127]", "chromatographic logP": 3.13}
{"smiles": "Fc1cccc(F)c1C1=NC(c2ccc(-c3ccc(N4CCN(CC5CCCCC5)CC4)nc3)cc2)CC1", "note": "(stereo not shown) [Example 128]", "chromatographic logP": 6.7}
{"smiles": "N#Cc1ccc(N2CCN(c3ccc(-c4ccc(C5CCC(c6c(F)cccc6F)=N5)cc4)cn3)CC2)cc1", "note": "(stereo not shown) [Example 129]", "chromatographic logP": 2.29}
{"smiles": "Fc1cccc(F)c1C1=NC(c2ccc(-c3cnc(-n4cccn4)nc3)cc2)CC1", "note": "(stereo not shown) [Example 130]", "chromatographic logP": 1.98}
{"smiles": "N#CCCN1CCN(c2ncc(-c3ccc(C4CCC(c5c(F)cccc5F)=N4)cc3)cn2)CC1", "note": "(stereo not shown) [Example 131]", "chromatographic logP": 1.69}
{"smiles": "CN(C)CCN1CCN(c2ncc(-c3ccc(C4CCC(c5c(F)cccc5F)=N4)cc3)cn2)CC1", "note": "(stereo not shown) [Example 132]", "chromatographic logP": 3}
{"smiles": "N#Cc1ccccc1N1CCN(c2ccc(-c3ccc(C4CCC(c5c(F)cccc5F)=N4)cc3)cn2)CC1", "note": "(stereo not shown) [Example 133]", "chromatographic logP": 2.3}
{"smiles": "Cc1cccc(N2CCN(c3ncc(-c4ccc(C5CCC(c6c(F)cccc6F)=N5)cc4)cn3)CC2)c1C", "note": "(stereo not shown) [Example 134]", "chromatographic logP": 5.78}
{"smiles": "CCC(CC)N1CCN(c2ncc(-c3ccc(C4CCC(c5c(F)cccc5F)=N4)cc3)cn2)CC1", "note": "(stereo not shown) [Example 135]", "chromatographic logP": 2.13}
{"smiles": "Fc1cccc(F)c1C1=NC(c2ccc(-c3cnc(N4CCN(c5cccc(Cl)c5)CC4)nc3)cc2)CC1", "note": "(stereo not shown) [Example 136]", "chromatographic logP": 4.83}
{"smiles": "C[C@@H]1CN(c2ncc(-c3ccc(C4CCC(c5c(F)cccc5F)=N4)cc3)cn2)C[C@H](C)O1", "note": "(stereo partly shown) [Example 137]", "chromatographic logP": 3.03}
{"smiles": "CCC(CC)N1CCN(c2ccc(-c3ccc(C4CCC(c5c(F)cccc5F)=N4)cc3)cn2)CC1", "note": "(stereo not shown) [Example 138]", "chromatographic logP": 1.39}
{"smiles": "CC(C)(C)c1ccc(CN2CCN(c3ncc(-c4ccc(C5CCC(c6c(F)cccc6F)=N5)cc4)cn3)CC2)cc1", "note": "(stereo not shown) [Example 139]", "chromatographic logP": 3.3}
{"smiles": "Fc1cccc(F)c1C1=NC(c2ccc(-c3cnc(N4CCSCC4)nc3)cc2)CC1", "note": "(stereo not shown) [Example 140]", "chromatographic logP": 3.13}
{"smiles": "Cc1ccc(CN2CCN(c3ncc(-c4ccc(C5CCC(c6c(F)cccc6F)=N5)cc4)cn3)CC2)cc1", "note": "(stereo not shown) [Example 141]", "chromatographic logP": 2.28}
{"smiles": "COc1ccc(CN2CCN(c3ncc(-c4ccc(C5CCC(c6c(F)cccc6F)=N5)cc4)cn3)CC2)cc1", "note": "(stereo not shown) [Example 142]", "chromatographic logP": 2.22}
{"smiles": "Fc1cccc(F)c1C1=NC(c2ccc(-c3cnc(N4CCN(Cc5ccc(Cl)cc5)CC4)nc3)cc2)CC1", "note": "(stereo not shown) [Example 143]", "chromatographic logP": 2.25}
{"smiles": "Fc1cccc(F)c1C1=NC(c2ccc(-c3cnc(N4CCN(Cc5ccc(C(F)(F)F)cc5)CC4)nc3)cc2)CC1", "note": "(stereo not shown) [Example 144]", "chromatographic logP": 4.7}
{"smiles": "Fc1ccc(CN2CCN(c3ncc(-c4ccc(C5CCC(c6c(F)cccc6F)=N5)cc4)cn3)CC2)cc1", "note": "(stereo not shown) [Example 145]", "chromatographic logP": 1.78}
{"smiles": "N#Cc1ccccc1N1CCN(c2ncc(-c3ccc(C4CCC(c5c(F)cccc5F)=N4)cc3)cn2)CC1", "note": "(stereo not shown) [Example 146]", "chromatographic logP": 3.78}
{"smiles": "CN1CCN(c2ncc(-c3ccc(C4CCC(c5c(F)cccc5F)=N4)cc3)cn2)CC1", "note": "(stereo not shown) [Example 147]", "chromatographic logP": 1.48}
{"smiles": "COCCN1CCN(c2ncc(-c3ccc(C4CCC(c5c(F)cccc5F)=N4)cc3)cn2)CC1", "note": "(stereo not shown) [Example 148]", "chromatographic logP": 1.49}
{"smiles": "Fc1ccc(N2CCN(c3ncc(-c4ccc(C5CCC(c6c(F)cccc6F)=N5)cc4)cn3)CC2)cc1", "note": "(stereo not shown) [Example 149]", "chromatographic logP": 3.95}
{"smiles": "N#Cc1cccnc1N1CCN(c2ncc(-c3ccc(C4CCC(c5c(F)cccc5F)=N4)cc3)cn2)CC1", "note": "(stereo not shown) [Example 150]", "chromatographic logP": 3.28}
{"smiles": "Fc1cccc(F)c1C1=NC(c2ccc(-c3cnc(N4CCN(Cc5ccccc5)CC4)nc3)cc2)CC1", "note": "(stereo not shown) [Example 152]", "chromatographic logP": 1.92}
{"smiles": "CCCCCCNc1ncc(-c2ccc(C3CCC(c4c(F)cccc4F)=N3)cc2)cn1", "note": "(stereo not shown) [Example 153]", "chromatographic logP": 3.1}
{"smiles": "CCCCCNc1ncc(-c2ccc(C3CCC(c4c(F)cccc4F)=N3)cc2)cn1", "note": "(stereo not shown) [Example 154]", "chromatographic logP": 2.9}
{"smiles": "CCCCCN1CCN(c2ncc(-c3ccc(C4CCC(c5c(F)cccc5F)=N4)cc3)cn2)CC1", "note": "(stereo not shown) [Example 155]", "chromatographic logP": 2.02}
{"smiles": "Cc1cccc(N2CCN(c3ccc(-c4ccc(C5CCC(c6c(F)cccc6F)=N5)cc4)cn3)CC2)c1C", "note": "(stereo not shown) [Example 157]", "chromatographic logP": 3.63}
{"smiles": "CCC(C)N1CCN(c2ncc(-c3ccc(C4CCC(c5c(F)cccc5F)=N4)cc3)cn2)CC1", "note": "(stereo not shown) [Example 158]", "chromatographic logP": 1.65}
{"smiles": "Fc1cccc(F)c1C1=NC(c2ccc(-c3cnc(N4CCN(c5ccccn5)CC4)nc3)cc2)CC1", "note": "(stereo not shown) [Example 159]", "chromatographic logP": 2.06}
{"smiles": "Fc1cccc(F)c1C1=NC(c2ccc(-c3cnc(NC4CC4)nc3)cc2)CC1", "note": "(stereo not shown) [Example 160]", "chromatographic logP": 1.65}
{"smiles": "Fc1cccc(F)c1C1=NC(c2ccc(-c3cnc(NC4CCCC4)nc3)cc2)CC1", "note": "(stereo not shown) [Example 161]", "chromatographic logP": 2.58}
{"smiles": "Fc1cccc(F)c1C1=NC(c2ccc(-c3cnc(NC4CCCCC4)nc3)cc2)CC1", "note": "(stereo not shown) [Example 162]", "chromatographic logP": 3}
{"smiles": "CCCN(CC)c1ncc(-c2ccc([C@H]3CCC(c4c(F)cccc4F)=N3)cc2)cn1", "note": "[Example 163]", "chromatographic logP": 3.58}
{"smiles": "Fc1cccc(F)c1C1=N[C@@H](c2ccc(-c3ccc(N4CCOCC4)nc3)cc2)CC1", "note": "[Example 164]", "chromatographic logP": 1.27}
{"smiles": "Fc1cccc(F)c1C1=NC(c2ccc(-c3ccc(N4CCN(c5cccc(Cl)c5)CC4)nc3)cc2)CC1", "note": "(stereo not shown) [Example 165]", "chromatographic logP": 3.17}
{"smiles": "Fc1cccc(F)c1C1=NC(c2ccc(-c3cnc(-n4cccc4)nc3)cc2)CC1", "note": "(stereo not shown) [Example 166]", "chromatographic logP": 3.58}
{"smiles": "O=C1CCCCCN1c1ncc(-c2ccc(C3CCC(c4c(F)cccc4F)=N3)cc2)cn1", "note": "(stereo not shown) [Example 167]", "chromatographic logP": 1.89}
{"smiles": "Fc1cccc(F)c1C1=NC(c2ccc(-c3cnc(N4CCN(CCc5ccccc5)CC4)nc3)cc2)CC1", "note": "(stereo not shown) [Example 168]", "chromatographic logP": 1.84}
{"smiles": "CCCc1cnc(-c2ccc(C3CCC(c4c(F)cccc4F)=N3)cc2)nc1", "note": "(stereo not shown) [Example 169]", "chromatographic logP": 2.96}
{"smiles": "COC(=O)C1CCN(c2ccc(-c3ccc(C4CCC(c5c(F)cccc5F)=N4)cc3)cn2)CC1", "note": "(stereo not shown) [Example 170]", "chromatographic logP": 1.61}
{"smiles": "Fc1ccccc1N1CCN(c2ccc(-c3ccc(C4CCC(c5c(F)cccc5F)=N4)cc3)cn2)CC1", "note": "(stereo not shown) [Example 171]", "chromatographic logP": 2.51}
{"smiles": "Fc1ccc(CN2CCN(c3ccc(-c4ccc(C5CCC(c6c(F)cccc6F)=N5)cc4)cn3)CC2)cc1", "note": "(stereo not shown) [Example 172]", "chromatographic logP": 1.64}
{"smiles": "Fc1cccc(F)c1C1=NC(c2ccc(-c3ccc(N4CCN(Cc5ccc(Cl)cc5)CC4)nc3)cc2)CC1", "note": "(stereo not shown) [Example 173]", "chromatographic logP": 1.83}
{"smiles": "COc1ccc(CN2CCN(c3ccc(-c4ccc(C5CCC(c6c(F)cccc6F)=N5)cc4)cn3)CC2)cc1", "note": "(stereo not shown) [Example 174]", "chromatographic logP": 1.59}
{"smiles": "CC(C)(C)C1CCN(c2ccc(-c3ccc(C4CCC(c5c(F)cccc5F)=N4)cc3)cn2)CC1", "note": "(stereo not shown) [Example 175]", "chromatographic logP": 2.89}
{"smiles": "CC(C)(C)c1ccc(CN2CCN(c3ccc(-c4ccc(C5CCC(c6c(F)cccc6F)=N5)cc4)cn3)CC2)cc1", "note": "(stereo not shown) [Example 176]", "chromatographic logP": 2.23}
